These results are taken from PubChem BioAssay AID1159560 (GlaxoSmithKline (GSK), 2015).

The IC50 is the concentration at which inhibition is half-maximal.

Active and inactive are the calls of the source. How the calls were made is not given here.

For this assay, the system named is Leishmania donovani growth inhibition. The assay is described as follows: antileishmanial activity against L. donovani parasites (AID 1159560).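 Further: parasites exposed to compound for 72 h before the viability read.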
On to `COc1ccc2ncc(Cl)c(CCN3CC[C@H](NCc4cc5c(cn4)OCS5)[C@@H](O)C3)c2n1`, for which the IC50 is 2 µM. Under `O=C(NCC1CCCCN1C(=O)c1cccc2ccccc12)c1ccccc1` (configuration not stated) stands > 50 µM (inactive). Regarding `O=C(NNC(=O)c1ccccn1)c1ccc(-c2ccccc2)cc1`, the IC50 was 3.2 µM. Under `Cc1[nH]nc(Nc2ccnc3[nH]ccc23)c1C` stands > 50 µM (inactive); under `COCc1cc(Nc2ccccc2)nc(-c2ccccn2)n1`, 7.9 µM. For the compound `Cc1ccc(S(C)(=O)=O)cc1Nc1nccc(-c2sc(N)nc2-c2ccccc2)n1`, the IC50 is 3.2 µM. Under `Cc1[nH]n2c(=O)c3c(nc2c1-c1ccc(Cl)cc1)CCCC3` stands 1.3 µM; under `Cn1c(CN2CCN(c3ncc(C(F)(F)F)cc3Cl)CC2)nc2ccncc21`, 5 µM. The value for `COc1ccc(OC)c(S(=O)(=O)N(Cc2c(F)cccc2F)[C@@H]2CCN(C#N)C2)c1` was 16 µM; that for `c1ccc2[nH]c(-c3ccc(N4CCCC4)nc3)nc2c1` was 5 µM; that for `Oc1c(-c2n[nH]c(CCc3ccccc3)n2)ncc2cccnc12` was 0.32 µM. Under `Cc1cccnc1CN1CCN(CCCOc2ccc(-c3ccc(C(N)=O)cc3)cc2)CC1` stands > 50 µM (inactive). For the compound `COc1ccc(S(=O)(=O)NCc2ccc(-c3ccc(CN(C)CCO)cc3)cc2)cc1`, the IC50 was > 50 µM (inactive). Under `CCCN(Cc1ccc(OC)c(OC)c1)Cc1cc(=O)c2c(C)cc(C)cc2[nH]1` stands 20 µM; under `CNc1cncc(C2CCCN2C(=O)Cc2coc3cc(C)ccc23)n1` (configuration not stated), 3.2 µM; under `c1ccc(Nc2nc(-c3ccccn3)cc(N3CCOCC3)n2)cc1`, 6.3 µM.

As to `Cc1cc2cncn2c(C2CCCCN2C(=O)c2cccs2)n1` (configuration not stated), the IC50 was 0.4 µM. The value for `CCOc1ccc2nc(NC(=O)c3ccc([N+](=O)[O-])s3)sc2c1` was 2.5 µM. Under `CCC1Oc2cc(S(=O)(=O)N(C)CC(=O)N3CCc4ccccc4C3)c(C)cc2NC1=O` (configuration not stated) stands > 50 µM (inactive). The value for `O=C(C1CCCCC1)N1CCN(c2nnc(-c3ccccc3)c3ccccc23)CC1` was > 50 µM (inactive); that for `O=S1N=C(NCCCN(Cc2ccc(F)cc2)c2ccccn2)C(NCc2ccncc2)=N1` (configuration not stated) was > 50 µM (inactive); that for `Nc1cc(-c2ccc3ncnc(N4CCOCC4)c3c2)cnc1N` was 4 µM. `CNS(=O)(=O)c1ccccc1Nc1nc(Nc2ccnn2C)ncc1Cl`: the IC50 was 0.2 µM.

For `CN(C(=O)Nc1ccc2c(c1)CCN(C1CCC1)CC2)c1ccc(C#N)cc1`, the IC50 is 40 µM. The value for `CCCCn1c(=O)c2c(N)onc2n(CCCC)c1=O` was > 50 µM (inactive).

With `CN(Cc1cc2ccccc2s1)c1ncc2c(N)nc(N)nc2n1`, the IC50 is 32 µM. For `O=C(Nc1nc(-c2ccccn2)cs1)C1CCc2ccccc2C1` (configuration not stated), the concentration for half-maximal inhibition (IC50) was 5 µM. For the compound `CCN(CC)S(=O)(=O)c1ccc(C)c(NC(=O)c2cc(Cl)c3c(c2)OCO3)c1`, the IC50 is > 50 µM (inactive). On to `COc1cccc(CN(C)Cc2nc(N)c3c(C)c(C)sc3n2)c1`, for which the IC50 is 32 µM. Under `CCCCNc1nccc(-c2c(-c3ccc(F)cc3)nn3c(N4CCOCC4)cccc23)n1` stands > 50 µM (inactive). The value for `CN(Cc1ccccc1)Cc1nnnn1C1CCN(Cc2ccc(-n3ccnc3)cc2)CC1` was > 50 µM (inactive); that for `CN1CCN(c2nc(-c3ccc(Cl)cc3)c3c(N)n(C)nc3n2)CC1` was > 50 µM (inactive). The value for `CC(=O)Nc1ccc(-c2csc(NC(=O)c3ccc([N+](=O)[O-])s3)n2)cc1` was 0.4 µM; that for `Cc1cc(Oc2cc(Cl)c(Cl)cc2Cl)n2ncnc2n1` was 16 µM; that for `c1ccc(CCNCc2cncc3nc(-c4cnccn4)n(C4CCCCC4)c23)cc1` was > 50 µM (inactive). For `NS(=O)(=O)c1ccc(Nc2ncc3cccc(OC4CCNCC4)c3n2)cc1`, the IC50 was 40 µM. The value for `O=C(CCc1ccc(-c2ccccc2)o1)N1CCN(c2ccc(O)cc2)CC1` was 10 µM. Under `Nc1nonc1-c1nc2cncc(C(=O)N3CC[C@H](N)C3)c2n1CC1CC1` stands > 50 µM (inactive); under `Cc1ccccc1CNc1cc(C2CC2)nc(-c2nccn2C)n1`, 1.6 µM. The value for `CCCn1c(NC(=O)Cc2ccc(Cl)cc2)nc2ccccc21` was 40 µM.

With `c1cncc(CN(Cc2ccco2)Cc2cn[nH]c2-c2cccs2)c1`, the IC50 was 32 µM. Under `COc1cc(C(C)C)c(S(C)(=O)=O)cc1C(=O)N1CCN(c2ccccc2Cl)CC1` stands 5 µM. Under `COc1ncc(-c2ccc3nccc(-c4ccncc4)c3c2)cc1NS(C)(=O)=O` stands 3.2 µM; under `COc1ccc(NS(=O)(=O)c2ccc(S(=O)(=O)N(C)C3CCCCC3)cc2)c2ncccc12`, > 50 µM (inactive). Under `Nc1nc(-c2ccccn2)nc(N)c1Cc1c(F)cccc1Cl` stands 2.5 µM; under `C[C@@H](Oc1cc(-n2cnc3ccc(O[C@H]4CCNC4)cc32)sc1C(N)=O)c1ccccc1Cl`, > 50 µM (inactive); under `CN(C)Cc1ccc(N2CCC(NS(=O)(=O)c3ccc(Cl)cc3)CC2)cc1`, 40 µM. Take `CN(C)c1ccc(-c2cc3nccnc3c(OC[C@H]3CCCNC3)n2)cn1`: the IC50 is > 50 µM (inactive). The value for `COc1cccc(NS(=O)(=O)c2ccc3[nH]cc(C(=O)NCCC(C)C)c(=O)c3c2)c1` was > 50 µM (inactive). The value for `O=c1ccc2ccc(F)c3c2n1C[C@H]3CN1CCC(NCc2cc3ccccc3o2)CC1` was 16 µM. In the case of `O=c1ccc2ccc(F)c3c2n1C[C@H]3CN1CCN(CC(O)c2cc3c(cn2)OCS3)CC1` (some centres not stated), the IC50 is 20 µM. The value for `O=C(CN1CCN(S(=O)(=O)c2cccc([N+](=O)[O-])c2)CC1)Nc1ccc(Oc2ccccc2)cc1` was 4 µM; that for `CC1(Oc2cncc(Cl)c2)CCN(Cc2cc3ccccc3[nH]2)C1` (configuration not stated) was > 50 µM (inactive); that for `O=C(NCc1ccc(Cl)cc1)C1CN(C(=O)c2ccc(F)cc2)CCS1` (configuration not stated) was > 50 µM (inactive).

On to `O=C(Nc1nc(-c2ccccn2)cs1)N1C[C@H]2C[C@@]2(c2ccccc2)C1`, for which the half-maximal inhibitory concentration (IC50) was 2 µM. The value for `CC(=O)Nc1ccc(Nc2nccc(-c3cnn4ncccc34)n2)cc1C(F)(F)F` was 0.2 µM; that for `CCN(CC)S(=O)(=O)c1ccc(C(=O)Nc2cc(C)nn2-c2nc(C)c(C)c(=O)[nH]2)cc1` was 0.5 µM. Under `COc1ccc(C(=O)N2CCC(Nc3cccnc3)C2)c(OC)n1` (configuration not stated) stands 16 µM; under `Cc1cc(N(C)C)nc(Nc2ccccc2C)n1`, > 50 µM (inactive). As for `CC(=O)Nc1ccc(-c2ccnc(Nc3cccc(C#N)c3)n2)cc1`, the concentration for half-maximal inhibition (IC50) was 40 µM.

For `c1ccc(-c2nc(NCc3ccco3)c3ccccc3n2)nc1`, the IC50 is 3.2 µM. The value for `Fc1ccccc1N1C[C@H]2CCN(c3cccnc3)C[C@H]2C1` was 13 µM; that for `O=C(NCc1nnc2n1CCCCC2)c1csc(-c2ccccc2)n1` was > 50 µM (inactive); that for `COc1ccc2ncc(F)c(CCN3CC[C@@H](NC(=O)c4cc5c(s4)CCC5)[C@@H](O)C3)c2n1` was 1 µM. Under `NS(=O)(=O)c1ccc(CNC(=O)c2ccc([N+](=O)[O-])s2)cc1` stands 32 µM. Regarding `Cc1cc(NC(=O)C2CC2)ccc1OC1CCN(Cc2ccco2)CC1`, the IC50 was > 50 µM (inactive). The value for `Cc1ccc2c(c1)SC(C(=O)Nc1n[nH]c(-c3ccccn3)n1)C2` (configuration not stated) was 6.3 µM; that for `NC(N)=Nc1nc(-c2ccc(NC(N)=NCCN3CCCC3)cc2)cs1` was > 50 µM (inactive). Turning to `CC(=Cc1ccccc1)CN1CCC(=O)N(Cc2cccnc2)CC1`, the IC50 is > 50 µM (inactive). The value for `CCOc1ccccc1C(=O)Nc1nnc(-c2ccc3c(c2)OCO3)s1` was 0.79 µM; that for `CC1CN(Cc2ccc(C#N)cc2)CCN1c1ccc(NC(=O)c2ccccc2F)cc1` (configuration not stated) was 40 µM. The value for `CN(C)S(=O)(=O)c1ccc(Cl)c(C(=O)Nc2nc(-c3ccccn3)cs2)c1` was 2 µM. With `CN(C)c1ncc(-c2cncn2CCOc2ccc(Cl)cc2)cn1`, the IC50 is > 50 µM (inactive).

On to `COc1ncc(-c2ccc3nccc(-c4ccncc4)c3c2)cc1NS(=O)(=O)C1CC1`, for which the concentration for half-maximal inhibition (IC50) is 1.3 µM. The value for `O=C(c1ccc(OCCCc2cnc[nH]2)cc1)C1CC1` was > 50 µM (inactive). `CCCc1cc(C(=O)Nc2ncc(-c3cccc(Br)c3)n2C)n[nH]1`: the IC50 was 6.3 µM. The value for `COc1ccccc1C1CC(c2ccc(NS(C)(=O)=O)cc2)=NN1C(=O)c1cccs1` (configuration not stated) was 4 µM; that for `CCOc1ccc(N(C)S(=O)(=O)c2ccc3[nH]cc(C(=O)NC4CCCC4)c(=O)c3c2)cc1` was > 50 µM (inactive). Under `CCc1ccccc1[C@@H](C)NC(=O)c1cnc2c(cnn2CC)c1NC1CCN(C(N)=O)CC1` stands > 50 µM (inactive); under `COc1ccc(CNc2cc(C3CC3)nc(-c3nccn3C)n2)cc1`, 2 µM.

With `O=C(Cc1ccc2c(c1)CCC2)Nc1n[nH]c(-c2ccccn2)n1`, the IC50 was 7.9 µM. The value for `O=C1CN(C2CCCc3c(OCc4ccncc4)cccc32)C(=O)N1C1CCCCC1` (configuration not stated) was > 50 µM (inactive); that for `CCNc1cc(-c2ccccn2)nc(Nc2ccccc2)n1` was 2.5 µM.

Turning to `COc1ccc(Nc2nc(-c3ccccn3)cc(N3CCCC(O)C3)n2)cc1` (configuration not stated), the IC50 is 2.5 µM.

On to `COc1ccc2ncc(F)c(NC(=O)C3(O)CCC(NCc4ccc5c(c4)OCCO5)CC3)c2n1` (configuration not stated), for which the IC50 is 40 µM. The value for `O=S(=O)(NCC(c1cccnc1)N1CCN(c2ccc(F)cc2)CC1)c1cccs1` (configuration not stated) was > 50 µM (inactive); that for `N#Cc1ccc(C(=O)Nc2cccc(-c3cccc(CN4CCC(O)CC4)c3)c2)cc1` was > 50 µM (inactive). The value for `CC(c1ccc2c(c1)CCCC2)N(C)c1ncc2c(N)nc(N)nc2n1` (configuration not stated) was 2.5 µM. Consider `CCCc1nc2nc(N)nc(N)c2cc1CC`, for which the concentration for half-maximal inhibition (IC50) is 2 µM.

For `CN(C)S(=O)(=O)c1ccc(-c2cnc(N)c(-c3nc4ccc(F)cc4[nH]3)c2)cc1`, the IC50 was 2.5 µM. For `N#CN1CC[C@@H](NC(=O)Nc2ccccc2Oc2ccccc2)C1`, the IC50 is 3.2 µM. The value for `O=C(NCCc1csc(-c2ccc(F)cc2)n1)c1ccco1` was > 50 µM (inactive).
